Measurements from US12251424B2, “Methods of protecting vascular integrity induced by targeted radiation therapy” (Janssen Pharmaceutica NV, priority 2017, dated 2025).

How the values were obtained:
internal pudendal artery = experiment: Ultrasonographic measurement of hydralazine-induced vasodilation after prostate RT; assay type: in vivo, Sprague Dawley rats
Protocol: (§1) Thirty-five eight-week-old male Sprague Dawley rats were obtained from Charles River Laboratories (Malvern, Pa.) and pair-housed under standard housing conditions. Animals were divided into 4 groups: Saline/Sham, Saline RT, TPOm/Sham, TPOm/RT.
(§2) TPOm was administered as a single dose via sub-cutaneous injection (3,000 μg/kg) 10 minutes after RT.
(§3) Stereotactic image-guided prostate single fraction RT was performed as published previously (Kimura et al., J. Sex Med. 9(6):1535-49 (2012)). In brief, rats were anesthetized and immobilized on a polystyrene block. A CT scan was performed to image the entire pelvis using a GE Discovery RT590 (GE Healthcare, Little Chalfont, UK). Individualized treatment plans were prepared for each rat using the Eclipse treatment planning system (Varian Medical Systems, Palo Alto, CA). The prostate and rectum were contoured, with the primary treatment volume generated by expansion of the prostate by 1 mm followed by subtraction of the rectum expanded by 1 mm. A single, dynamic conformal arc plan using a beam energy of 6 MV was normalized to deliver 20 Gy to 95% of the primary treatment volume in a single fraction with partial sparing of the rectum. The majority of the bladder, the penis and the testes were excluded from the field. The rat was then treated on a NovalisTx radiosurgery linac (Brainlab AG, Munich, DE and Varian Medical Systems) using cone beam computed tomography prior to treatment with bony image guidance within the same anesthesia window as planning. Sham irradiated rats were anesthetized and immobilized on a polystyrene block without irradiation.
Following ICP measurements, acoustic gel was applied to the prostate area and a mouse high frequency echo transducer (MS5505) was applied to the internal pudendal artery. […] Reproducible US placement was verified by using the same US-measured distance to the pubic bone in all animals. […] Arterial diameter was measured using the vascular package for Vevo 2100 software.
(§4) Statistical analysis was completed using Prism 6 (GraphPad, LaJolla, CA). […] Rat weight was assessed using a two-way repeated measures ANOVA.

ear vasculature [1] = experiment: Murine ear vein model: leukocyte-endothelial cell (L/E) interactions (acridine orange intravital microscopy); assay type: in vivo, Flk1-mCherry mice
Text: (§5) Immediately prior to injection, aliquots were thawed and diluted.
(§6) Mice were anesthetized via isoflurane (2%, mixed with oxygen) and the ear was chemically depilated (Nair™) and cleaned with 70% ethanol. The mouse was placed on a heated stage underneath a Zeiss Observer.Z1 (Carl Zeiss AG, Oberkochen, Germany) inverted microscope. The irradiated ear was affixed to a plexi-glass slide using double-sided tape. Images were acquired using Zen Imaging software (Carl Zeiss AG, Oberkochen, Germany). The vascular endothelial cells in Flk1-mCherry mice express mCherry, which was visualized using a Zeiss Texas Red filter (Ex. 560/40; Em. 630/75). Acridine orange and FITC-dextran were visualized using a Zeiss eGFP/FITC/Alexa488 filter (Ex. 470/40; Em. 525/50).
After orienting the mouse on the microscope, 0.5 mg of acridine orange (Sigma, St. Louis, MO; dissolved in sterile saline) was injected intravenously. […] Four venules per mouse were identified, based on their diameter, and the number of leukocytes that rolled past three pre-selected points in each venule were counted. The vessel diameter (D) and free-flowing leukocyte velocities (V) were also measured, and used to calculate shear rate, defined as (8×V)/D. All videos were analyzed by researchers blinded to the treatment groups. […]
B), and slopes were calculated for each individual mouse using GraphPad Prism. […]

ear vasculature [2] = experiment: Murine ear vein model: vascular permeability (FITC-dextran, intravital microscopy, Patlak analysis); assay type: in vivo, Flk1-mCherry mice; details: TPOm following radiation; days 3 and 7 post-irradiation
Text: as §5, §6
After orienting the mouse on the microscope, a 30G needle attached to a syringe with Tygon Microbore tubing catheter (Harvard Apparatus) was inserted into the tail vain. Z-stack images of both the FITC and mCherry channels were acquired every 10 seconds, and 0.5 mg of FITC-conjugated 70 kDa dextran injected through the catheter after the third set image of images was collected. […]
Model (0.1) postulates that the change in tissue concentration at time t is proportional to CB(t-Δ), concentration of dextran in the vasculature at a delay Δ. […] In this setting, the quantity of interest is k1, the permeability rate. […]

[3] = 3,000 μg/kg; administered at multiple time points; whole body radiation; cited from earlier work
[4] = Rat weight gain after 20 Gy targeted prostate RT; assay type: in vivo, Sprague Dawley rats
Protocol: as §1, §2
as §3, with “The majority of the bladder, the penis and the testes were excluded from the field. The rat was then treated on a NovalisTx radiosurgery linac (Brainlab AG, Munich, DE and Varian Medical Systems) using cone beam computed tomography prior to treatment with bony image guidance within the same anesthesia window as planning. Sham irradiated rats were anesthetized and immobilized on a polystyrene block without irradiation.” left out
as §4

penile artery = experiment: CD31 staining and quantification of penile arteries after prostate RT; assay type: in vivo, Sprague Dawley rats
Protocol: as §1, §2
Stereotactic image-guided prostate single fraction RT was performed as published previously (Kimura et al., J. Sex Med. 9(6):1535-49 (2012)). In brief, rats were anesthetized and immobilized on a polystyrene block. A CT scan was performed to image the entire pelvis using a GE Discovery RT590 (GE Healthcare, Little Chalfont, UK). Individualized treatment plans were prepared for each rat using the Eclipse treatment planning system (Varian Medical Systems, Palo Alto, CA). […]
Penises were snap-frozen in liquid nitrogen and stored at −80° C. until use. […] CD31 expression was then quantified by highlighting only the CD31 stained portion surrounding each vessel, and obtaining a pixel count of the stained region, using a uniform threshold across all images. […]
as §4

[5] = mouse, in vivo
Protocol: Male and female mice of at least 8 weeks of age were transferred to a non-barrier facility and group housed throughout the experiments.
Mice were anesthetized with 80/8 mg/kg ketamine/xylazine i.p. injection. Mice were placed in cylindrical lead jigs that shielded the entire body with the exception of the left ear pinna and were irradiated using an Orthovoltage X-ray 320 irradiator (Precision X-ray Inc.; North Branford, CT) at a dose rate of 203 cGy/minute (320 kVp/10 mA with a 2 mm Al filter).
TPOm was reconstituted in sterile saline, sterile filtered, aliquoted, and stored at −20° C. until use. Immediately prior to injection, aliquots were thawed and diluted. Mice received 300 μg/kg of TPOm, sub-cutaneously, six hours after radiation.
Mice were euthanized with 50 μL Euthasol (Virbac, Fort Worth, TX) injected intraperitoneally. After mice became non-responsive to toe pinch, but prior to heartbeat cessation, 500 μL of blood was collected by cardiac puncture via heparinized syringe, and immediately vortexed with 20 μL heparin. CBC analysis was conducted using an IDEXX ProCyte Dx Hematology analyzer by the Duke University Veterinary Diagnostic Laboratory.

erectile function = experiment: Intracavernous pressure (ICP) measurements, radiation-induced erectile dysfunction; assay type: in vivo, Sprague Dawley rats
Protocol: as §1, §2, §3
For intracavernous pressure (ICP) measurements, a previously published protocol was followed (Kimura et al., J. Sex Med. 8(8):2215-26 (2011)). […] MAP and ICP were recorded using LabChart 7 software (ADInstruments, Colorado Spring, CO), and expressed as a ratio to minimize inter-rat differences in baseline pressure and effects of anesthesia.
as §4

## methoxypolyethyleneglycol20000-propionyl-L-Isoleucyl-L-Glutamyl-Glycyl-L-Prolyl-L-Threonyl-L-Leucyl-L-Arginyl-L-Glutaminyl-L-2-Naphthylalanyl-L-Leucyl-L-Alanyl-L-Alanyl-L-Arginyl-Sarcosyl-Ne-(methoxypolyethyleneglycol20000-propionyl-L-Isoleucyl-L-Glutamyl-Glycyl-L-Prolyl-L-Threonyl-L-Leucyl-L-Arginyl-L-Glutaminyl-L-2-Naphthylalanyl-L-Leucyl-L-Alanyl-L-Alanyl-L-Arginyl-Sarcosyl-)-Lysinamide [TPOm]
Internal pudendal artery; TPOm following 20 Gy prostate RT, 0.4 mg/kg hydralazine, 9 weeks post-RT
  change in pudendal artery diameter in response to hydralazine: 24.1%±7.2%
Internal pudendal artery; nine weeks post-RT, diameter before and after hydralazine (FIG. 2)
  protection from impaired pudendal artery vasodilation following prostate RT: protected rats from impaired pudendal artery vasodilation
Internal pudendal artery; non-irradiated rats, TPOm alone, 0.4 mg/kg hydralazine, 9 weeks
  increase in pudendal artery diameter following hydralazine infusion: 10.4%±10%
Ear vasculature [1]; 6 Gy to the ear, 300 μg/kg TPOm s.c. six hours later, 24 hours post-irradiation
  average slope of shear rate vs. L/E interactions: −8.7±6.4
Ear vasculature [1]; FIG. 9C
  L/E interaction at higher shear rates after RT: prevented L/E interaction at higher shear rates
Ear vasculature [2]
  permeability rates versus non-irradiated controls: not significantly different from non-irradiated controls
[3]
  survival compared to placebo: substantial survival benefit
[4]; TPOm/RT, 20 Gy prostate RT, 3,000 μg/kg s.c. 10 minutes after RT
  mean rate of body weight gain: 28.6±3.9 g/week
[4]; TPOm/sham (no RT), 3,000 μg/kg s.c. single dose
  mean rate of body weight gain: 37.7±3.3 g/week
Penile artery; TPOm/RT rats, nine weeks post-RT (FIG. 3B)
  RT-induced decrease in penile artery cross-sectional area: not seen
Penile artery; pair-wise comparison between treatment groups (FIG. 3C)
  CD31 density (CD31+ pixels/μm artery perimeter): no pair-wise differences
[5]
  effect on total leukocytes, neutrophils or lymphocytes: no significant differences
Erectile function; TPOm alone, no RT
  mean ICP:MAP versus unirradiated rats treated with saline: not significantly different
Erectile function; TPOm following 20 Gy prostate RT, 9 weeks
  ED penetrance (ICP:MAP ratio not greater than 0.6): 67%
Erectile function; single dose of TPOm 10 minutes post RT, ICP tested 9 weeks after RT (FIG. 4)
  prevention of prostate RT (20 Gy) induced erectile dysfunction: not prevented
